# Data taken from PubChem BioAssay AID540268 (Broad Institute, 2011).
# Calls of active or inactive are those of the source. How the calls were made is not given here.
# Experiment: reduced viability of parasite-Hsp90 expressing yeast – ATP luminescence, 48 h, cherry-picked samples, anti-malarial Hsp90 inhibitor project, dose response (AID 540268);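 on activity change, negative = inhibition: 0% = neutral control wells and -100% = positive control wells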
# Settings: yeast expressing the parasite Hsp90, ATP luminescence; for activity change, negative = inhibition: at 26 µM (top of the series)
SMILES,"activity change, negative = inhibition",AC50
NC(=O)/C=C\C(=O)Nc1cccc(C(F)(F)F)c1,12.6% (inactive),
COc1cc2c(cc1/C=C/[N+](=O)[O-])OCO2,,3.11 µM
Cc1ccc(NN2C(=O)C=C(c3ccc(Cl)cc3)C2=O)cc1,,< 0.195 µM
Cc1c(Cl)cccc1N=Cc1ccc([N+](=O)[O-])s1,,8.3 µM
Cc1ccc(C(=O)c2coc3c2C(=O)C(=O)c2ccccc2-3)cc1,,8.16 µM
CCN(CC)S(=O)(=O)c1cccc(C(=O)NCC(c2ccccc2)N(C)C)c1 (stereo not given),,3.92 µM
Cc1ccc(N=c2ssnc2Cl)cc1,,3.28 µM
O=C1C(=C(I)I)c2ccccc2-c2ccccc21,26.6% (inactive),
Cn1c(O)c(C(=Nc2ccc(F)cc2)c2ccccc2Cl)c(=O)n(C)c1=O,,2.28 µM
CC(C)(C)c1ccc(-n2nc(C#N)c(Cl)cc2=O)cc1,,4.31 µM
N#C/C(=C\c1ccc([N+](=O)[O-])o1)C(=O)Nc1ccc(F)cc1,,0.33 µM
O=C(N/N=C/c1sc2ccccc2c1O)c1ccccc1,,1.13 µM
O=C1c2ccccc2NC(c2ccc(-c3ccc(C(F)(F)F)cc3)o2)N1O (stereo not given),,7.62 µM
O=C1/C(=C\c2ccc(O)c(O)c2)SC(=S)N1Cc1ccccc1,,4.26 µM
Cc1cccc(N2CCN(S(=O)(=O)c3c(C)noc3/C=C/N(C)C)CC2)c1C,,8.39 µM
O=C(Nc1nc(-c2ccccn2)cs1)C1COc2ccccc2O1 (stereo not given),,8.85 µM
CCN(C(=O)C1CCCN(c2nc(-c3ccc(OC)cc3)no2)C1)c1ccc(OC)cc1 (stereo not given),,4.85 µM
Clc1ccc(CCC(Cn2ccnc2)Sc2c(Cl)cccc2Cl)cc1 (stereo not given),,< 0.195 µM
O=C1Nc2ccc(Br)cc2/C1=C/C(=O)c1ccc2c(c1)OCO2,,2.63 µM
CCCC(=O)NC(c1ccc2c(c1)OCO2)c1cc(Cl)c2cccnc2c1O (stereo not given),,4.45 µM
COc1ccc(N(C(=O)c2ccncc2)S(=O)(=O)c2ccc(Cl)cc2)cc1,,0.562 µM
CN(c1ccccc1)c1ccc(/C=C/[N+](=O)[O-])cc1,,5.24 µM

SMILES,"activity change, negative = inhibition",AC50
Clc1ccc2[nH]c3c(c2c1)CCc1cn[nH]c1-3,,8.79 µM
CC(=O)SC(C[N+](=O)[O-])c1cn(C(C)=O)c2ccccc12 (stereo not given),,1.57 µM
O=[N+]([O-])c1cc(S(=O)(=O)C(F)(F)F)ccc1Sc1nc2ccccc2s1,,3.43 µM
C=CC(n1cncn1)C(O)(c1ccccc1)c1ccccc1 (stereo not given),,1.03 µM
Cc1cc(NC(c2ccc(Cl)cc2)c2ccc3cccnc3c2O)no1 (stereo not given),,4.2 µM
O=C(/C=C/c1ccccc1Cl)c1ccc(O)cc1,,4.63 µM
Nc1ccccc1C#CC(=O)c1ccccc1,,7.65 µM
Cc1cccc(N2C(=O)C=CC2=O)c1,,0.372 µM
O=C(c1ccc(Cl)cc1)N1CCN(c2ccc(F)cc2)CC1,,4.47 µM
Cc1sc2ncnc(N/N=C/c3ccccc3O)c2c1C,,4.4 µM
O=C(/C=C/c1cccc([N+](=O)[O-])c1)c1ccco1,,4.27 µM
O=C1C=CC(=O)N1CCCCCCCCCCN1C(=O)C=CC1=O,,0.837 µM
C=CCn1c(C)cc(C(=O)CSc2nc3ccccc3c(=O)[nH]2)c1C,,3.28 µM
O=C(N/N=C/c1cc2c3c(c1O)CCCN3CCC2)c1ccccc1O,,1.42 µM
Cc1ccc(-n2nnnc2C(Cl)c2nnnn2-c2ccc(C)cc2)cc1,,0.903 µM
COc1ccc(C(C[N+](=O)[O-])n2nc(C)cc2C)cc1 (stereo not given),,0.365 µM
COc1cc(/C=N/O)cc(Br)c1OCc1cccc(Cl)c1,,8.2 µM
CCOC(=O)COc1ccc2ccccc2c1/C=C/[N+](=O)[O-],,4.46 µM
Cc1sc(NC(=O)c2ccco2)c(C(c2cccnc2)N2CCC(C)CC2)c1C (stereo not given),,7.74 µM
CCCCCCCCCCCCCC(=O)NO,,< 0.195 µM
Cc1cc(Cl)ccc1C(=O)C1CCCN(C(=O)c2cncs2)C1 (stereo not given),,4.62 µM
O=C1C(F)=CC(COC(c2ccccc2)(c2ccccc2)c2ccccc2)OC1n1cc(F)c(=O)[nH]c1=O (stereo not given),,0.718 µM

SMILES,"activity change, negative = inhibition",AC50
CC1=NOC(=O)/C1=C\c1ccc(-c2ccc(Br)cc2)o1,,4.51 µM
CCC(C)(C)n1nnnc1C(c1cccnc1)N1CCC(Cc2ccccc2)CC1 (stereo not given),,1.52 µM
CCOC(=O)c1ccc(N2C(=O)CC(N(C)CCc3ccc(OC)c(OC)c3)C2=O)cc1 (stereo not given),,3.14 µM
Cc1ccc(N2C(=O)C3C4C=CC(CNC(=S)N5CCN(c6ccccc6)CC5)(O4)C3C2=O)cc1 (stereo not given),,6.93 µM
O=[N+]([O-])c1ccc(Sc2nc3ccccc3o2)c([N+](=O)[O-])c1,,3.56 µM
CC(Oc1ccc(Cl)cc1)C(=O)NNC(=S)NC(=O)c1ccco1 (stereo not given),,1.94 µM
CCCCC(=O)NC(c1ccco1)c1cc(Cl)c2cccnc2c1O (stereo not given),,4.6 µM
O=C1CC(c2ccccc2)=NN1c1nc(-c2ccccc2)cs1,,1.14 µM
O=C(Oc1c(Cl)cc(Cl)c2cccnc12)c1cccc([N+](=O)[O-])c1,,16 µM
Cn1nnnc1N=N/C(=N/Nc1ccccc1)c1ccccc1,,3.2 µM
Oc1c(CN2CCCCC2)cc(Br)c2cccnc12,,2.95 µM
Cn1c(CNc2ccc(Cl)cc2)nnc1SCc1ccccc1,,3.43 µM
Oc1c(C(Nc2nccs2)c2ccc(C(F)(F)F)cc2)ccc2cccnc12 (stereo not given),,2.49 µM
CCCc1ccc(Oc2cn[nH]c2-c2ccc(O)c(C)c2O)cc1,,0.408 µM
Nc1cc2c(cc1[N+](=O)[O-])-c1ccccc1C2=NO,,8.64 µM
CN1CCc2nc3sc(C(=O)C45CC6CC(CC(C6)C4)C5)c(N)c3cc2C1,,0.502 µM
O=C(Nc1nc(-c2ccccn2)cs1)c1ccc(Br)s1,,2.18 µM
CC(=NNC(=S)N(Cc1ccccn1)Cc1ccccn1)c1cnccn1,,3.95 µM
O=[N+]([O-])c1c(Nc2ccccn2)cc(Cl)c2nonc12,,0.803 µM
c1ccc(-c2c(-c3ccccc3)n(Cc3ccco3)c3ncnc(NCCCn4ccnc4)c23)cc1,,1.83 µM
O=[N+]([O-])/C=C/c1ccc2c(ccn2Cc2ccccc2)c1,,4.35 µM
O=c1c2c3c(sc2ncn1/N=C/c1ccc([N+](=O)[O-])o1)CCCC3,,2.66 µM

SMILES,"activity change, negative = inhibition",AC50
N/C(Cc1ccc(Cl)cc1Cl)=N\OC(=O)c1cccs1,,6.39 µM
CCCCOc1ccc(C(=O)NNC(=S)NC(=O)CC)cc1,,4.2 µM
CCn1c(CNc2ccc(Cl)cc2)nnc1SCc1ccc(C)cc1,,8.23 µM
Cc1ccc2nc(/C(C#N)=C\c3ccc([N+](=O)[O-])o3)[nH]c2c1,,< 0.195 µM
O=C1C=CC(=O)N1CCNc1ncc(C(F)(F)F)cc1Cl,,0.674 µM
O=C1C2(Cl)C3(Cl)C4(Cl)C(Cl)(Cl)C5(Cl)C3(Cl)C1(Cl)C5(Cl)C24Cl (stereo not given),,2.93 µM
COC(=O)/C=C\C(=O)Nc1cccc([N+](=O)[O-])c1,,2.43 µM
CC(=NNC(=S)N1CCN(c2ccccn2)CC1)c1nccs1,,2.58 µM
CCCC(=O)NC(c1ccc(C)cc1)c1ccc2cccnc2c1O (stereo not given),,3.4 µM
CC(C)(C)c1ccc(C(=O)CC(Sc2ccc(Cl)cc2)C(=O)O)cc1 (stereo not given),,7.29 µM
Oc1ccccc1C1=NN(c2ccccc2)C(c2ccccc2)C1 (stereo not given),,4.3 µM
CSc1ccccc1OCc1cc(C(=O)N2CCN(C)C(c3ccccc3)C2)no1 (stereo not given),,2.25 µM
O=[N+]([O-])/C=C\c1ccc(N2CCCC2)c(F)c1,,6.27 µM
O=c1c2ccccc2nnn1CSc1nnc(COc2ccc(Cl)cc2)n1Cc1ccco1,,3.31 µM
CC1=NOC(=O)/C1=C/c1ccc(-c2ccc(Cl)cc2)o1,,2.43 µM
O=[N+]([O-])c1ccc2c(c1)-c1ccccc1C2=NO,,2.72 µM
O=[N+]([O-])c1cc(Cl)c(O)c2ncccc12,,1.81 µM
CC(=NNc1nc2ccccc2s1)c1ncccn1,,2.36 µM
CCN1/C(=C/c2ccc3cc(C)cc(C)c3[n+]2CC)Sc2cc(C)ccc21,,2.91 µM
